Test results taken from ChEMBL document CHEMBL5661967, “Antitumor activity of HKI-272, an orally active, irreversible inhibitor of the HER-2 tyrosine kinase” (Cancer Res, 2004).

Biological target: Receptor tyrosine-protein kinase erbB-2 (Homo sapiens, UniProt P04626)
Assay: Inhibition of recombinant N-terminal His6-tagged HER2 cytoplasmic domain (676 to 1255 residues) (unknown origin) expressed in baculovirus infected Sf9 insect cells assessed as reduction in autophosphorylation preincubated for 15 mins followed by ATP addition and measured after 1 hr by ELISA

Chain of Receptor tyrosine-protein kinase erbB-2 (P04626 whole entry, the tested form may be a part): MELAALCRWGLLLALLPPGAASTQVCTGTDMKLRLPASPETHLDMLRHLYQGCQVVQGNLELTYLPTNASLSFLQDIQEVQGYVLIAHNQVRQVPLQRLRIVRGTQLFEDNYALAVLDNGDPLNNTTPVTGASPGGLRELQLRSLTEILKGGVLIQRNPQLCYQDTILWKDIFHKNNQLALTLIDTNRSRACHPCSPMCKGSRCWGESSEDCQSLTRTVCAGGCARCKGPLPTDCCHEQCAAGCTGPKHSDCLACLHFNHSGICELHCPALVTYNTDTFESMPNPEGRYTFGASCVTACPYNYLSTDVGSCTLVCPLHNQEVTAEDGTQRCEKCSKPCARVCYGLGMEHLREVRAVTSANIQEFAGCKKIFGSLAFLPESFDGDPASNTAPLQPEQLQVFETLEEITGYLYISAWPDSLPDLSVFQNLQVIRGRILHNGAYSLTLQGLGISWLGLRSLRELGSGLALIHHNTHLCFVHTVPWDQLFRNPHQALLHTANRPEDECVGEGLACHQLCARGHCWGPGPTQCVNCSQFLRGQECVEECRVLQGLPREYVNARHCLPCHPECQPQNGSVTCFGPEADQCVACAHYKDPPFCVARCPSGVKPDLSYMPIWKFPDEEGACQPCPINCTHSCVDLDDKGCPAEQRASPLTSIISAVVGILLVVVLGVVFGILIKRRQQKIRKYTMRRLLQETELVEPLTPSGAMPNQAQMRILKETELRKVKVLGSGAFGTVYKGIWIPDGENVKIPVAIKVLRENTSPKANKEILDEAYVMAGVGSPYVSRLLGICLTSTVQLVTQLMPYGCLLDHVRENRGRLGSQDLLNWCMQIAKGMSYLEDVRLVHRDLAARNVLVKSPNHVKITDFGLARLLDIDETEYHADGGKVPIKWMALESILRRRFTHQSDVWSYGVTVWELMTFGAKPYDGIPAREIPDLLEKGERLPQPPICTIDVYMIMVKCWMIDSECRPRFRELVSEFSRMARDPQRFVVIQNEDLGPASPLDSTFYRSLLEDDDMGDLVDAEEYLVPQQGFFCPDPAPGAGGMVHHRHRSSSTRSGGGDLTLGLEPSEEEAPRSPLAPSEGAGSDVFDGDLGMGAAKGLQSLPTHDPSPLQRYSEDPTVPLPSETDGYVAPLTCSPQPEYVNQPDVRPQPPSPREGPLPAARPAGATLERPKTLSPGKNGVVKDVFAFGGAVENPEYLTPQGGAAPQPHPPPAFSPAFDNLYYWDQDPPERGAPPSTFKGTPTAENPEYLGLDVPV

- IC50: 1260 nM
Structure (SMILES): CCOc1cc2ncc(C#N)c(Nc3ccc(F)c(Cl)c3)c2cc1NC(=O)/C=C/CN(C)C [PELITINIB]
